Source: PMC5040747, “Preparation and Evaluation of a Novel Class of Amphiphilic Amines as Antitumor Agents and Nanocarriers for Bioactive Molecules” (Pharmaceutical Research, 2016)
pIC50: −log10 of the molar value. Read-outs that look alike come from different tables or passages of the source.

How the values were obtained:
[1] = system: Rh41; experiment: MTT cell proliferation assay, Rh41; assay type: cell-based; settings: Homo sapiens, Rh41, Rhabdomyosarcoma, read-out: Cell killing activity IC50
Method: (§1) Cells were plated in 96-well tissue culture plates at a density of 1 × 10^3 cells/well, allowed to attach 24 h, and then left untreated or treated with growth medium containing different concentrations of the tested RCn compounds previously dissolved in PBS. After different time periods the cell vitality was determined by MTT assay according to the manufacture’s instruction (Promega). Results are reported as the micromolar concentration of RCn reducing cell survival to 50% (IC50).

[2] = system: HUVEC; experiment: MTT cell proliferation assay, HUVEC; assay type: cell-based; settings: Homo sapiens, normal cells, read-out: Cell killing activity IC50
Method: as §1

[3] = system: S462TY; experiment: MTT cell proliferation assay, S462TY; assay type: cell-based; settings: Homo sapiens, Malignant Peripheral Nerve Sheath Tumor, read-out: Cell killing activity IC50
Method: as §1

[4] = system: Neuro 2A; experiment: In vivo efficacy, metastatic model of murine neuroblastoma; design: species or system mouse
Method: An efficacy study was performed on an immunocompetent model of neuroblastoma. In this experiment A/J mice were i.v. injected with Neuro 2A (0.2 × 10^6 cells in 100 μL of PBS). After 5 days, the mice were randomized (six animals per group) and treated once with RC16 injected through the tail vein at doses of 20 μg or 40 μg/mouse or vehicle (PBS). After treatment animals were monitored for survival and endpoint criteria.
Endpoint criteria included tumor volume > 2000 mm3, body weight loss ≥ 20%, unusual mouse behavior, lack of movement and poor posture. Tumor size was measured using digital calipers on alternate days and tumor volume was calculated using the following formula: a x b^2 π/6 where a is the longest diameter and b is the shortest diameter. Mice were also weighed and observed 3 times per week for signs of endpoint condition.

[5] = system: Human Foreskin Keratinocytes (differentiated); experiment: MTT cell proliferation assay, normal keratinocytes; assay type: cell-based; settings: Keratinocyte, normal cells, read-out: Cell killing activity IC50
Method: as §1

[6] = system: SH-SY5Y, A673 and 143.98.2 cells; experiment: Annexin V-FITC/7AAD flow cytometry (apoptosis); assay type: cell-based, human; settings: 5 μM RC16, 24 h, all cell lines
Method: SH-SY5Y, A673 and 143.98.2 cells were stained with Annexin V-FITC/7AAD according to the manufacturer’s instructions (Biosciences). Briefly, adherent cells were seeded in 6 multi wells at a concentration of 4.5 × 10^5 cells/well and after 24 h treated with 5 μM RC16 for15 h and 24 h. At the end of the treatment the cells were detached, washed twice with cold PBS and then suspended in annexin binding buffer containing 5 μl of Annexin V-FITC and 5 μl of 7AAD. The samples were gently vortexed and incubated 15 min at 25°C in the dark. Finally, 400 ul binding buffer were added to each tube and the samples were analyzed by BD LSR II (Biosciences). The analysis was performed by FlowJo software version 10.0.5.

[7] = system: A549; experiment: MTT cell proliferation assay, A549; assay type: cell-based; settings: Homo sapiens, A549, adult tumor cell line, read-out: Cell killing activity IC50
Method: as §1

## CCCCCCCCCCCCCCC1CN2CCCN3CCCCCC132 (stereo not shown) [RC16, 2-tetradecyl-4,8-diazatricyclo[6.5.0.0^1,^4]tridecane]
[1]; 24 h
  pIC50: 6.60
[1]; 48 h
  pIC50: 6.82
[2]; 24 h
  pIC50: 4.97
[2]; 48 h
  pIC50: 5.02
[3]; 24 h
  pIC50: 5.95
[3]; 48 h
  pIC50: 6.12
[4]; A/J mice, single i.v. dose 20 μg or 40 μg/mouse
  Mean survival time versus controls: significant increase in the mean survival time
[4]; end of experiment (90 days), 20 μg or 40 μg/mouse i.v.
  Treated mice healthy and alive, no macroscopic disease at necropsy: 3 of the 12
[5]; 24 h
  pIC50: 4.82
[5]; 48 h
  pIC50: 4.87
[6]
  Apoptosis (sum of LR and UR quadrants): approximately 100%
[7]; 24 h
  pIC50: 5.18
[7]; 48 h
  pIC50: 5.25
